Assay results reported in ChEMBL document CHEMBL5236646, “Design, synthesis, and biological evaluation of BRD4 degraders” (Bioorg Med Chem, 2023).
Activity calls are given as the source filed them. The rule behind the calls is not given here.

Assays:
Format in all cases: cell-based
[1] = biological target: T1, Protein cereblon/Bromodomain-containing protein 4 (Homo sapiens) (UniProt O60885+Q96SW2); experiment: Protac activity at CRBN/BRD4 in human MM1.S cells assessed as induction of BRD4 protein degradation by measuring residual activity at 300 nM measured after 6 hrs by Western blot analysis (reference value: 100%)
[2] = biological target: T1, Protein cereblon/Bromodomain-containing protein 4 (Homo sapiens); experiment: Protac activity at CRBN/BRD4 in human MM1.S cells assessed as induction of BRD4 protein degradation by measuring residual activity at 300 nM preincubated with lenalidomide for 2 hrs followed by compound addition and measured after 6 hrs by Western blot analysis (reference value: 100%)
[3] = biological target: T1, Protein cereblon/Bromodomain-containing protein 4 (Homo sapiens); experiment: Protac activity at CRBN/BRD4 in human MV4-11 cells assessed as induction of BRD4 protein degradation by measuring residual activity at 30 nM measured immediately by Western blot analysis (reference value: 100%)
[4] = biological target: T1, Protein cereblon/Bromodomain-containing protein 4 (Homo sapiens); experiment: Protac activity at CRBN/BRD4 in human MM1.S cells assessed as induction of BRD4 protein degradation by measuring residual activity at 300 nM measured after 1 hr by Western blot analysis (reference value: 317%)
[5] = biological target: T1, Protein cereblon/Bromodomain-containing protein 4 (Homo sapiens); experiment: Protac activity at CRBN/BRD4 in human MV4-11 cells assessed as induction of BRD4 protein degradation by measuring residual activity at 100 nM measured after 6 hrs by Western blot analysis (reference value: 100%)
[6] = biological target: T1, Protein cereblon/Bromodomain-containing protein 4 (Homo sapiens); experiment: Protac activity at CRBN/BRD4 in human MV4-11 cells assessed as downregulation of MYC protein expression at 30 uM incubated for 3 hrs by Western blot analysis
[7] = biological target: T1, Protein cereblon/Bromodomain-containing protein 4 (Homo sapiens); experiment: Protac activity at CRBN/BRD4 in human MV4-11 cells assessed as induction of BRD4 protein degradation by measuring residual activity at 30 nM measured after 9 hrs by Western blot analysis (reference value: 100%)
[8] = biological target: T1, Protein cereblon/Bromodomain-containing protein 4 (Homo sapiens); experiment: Protac activity at CRBN/BRD4 in human MV4-11 cells assessed as induction of BRD4 protein degradation by measuring residual activity at 30 nM preincubated with lenalidomide for 2 hrs followed by compound addition and measured after 6 hrs by Western blot analysis (reference value: 100%)
[9] = biological target: T1, Protein cereblon/Bromodomain-containing protein 4 (Homo sapiens); experiment: Protac activity at CRBN/BRD4 in human MV4-11 cells assessed as induction of BRD4 protein degradation by measuring residual activity at 3 nM measured after 6 hrs by Western blot analysis (reference value: 100%)
[10] = biological target: T1, Protein cereblon/Bromodomain-containing protein 4 (Homo sapiens); experiment: Protac activity at CRBN/BRD4 in human MM1.S cells assessed as induction of BRD4 protein degradation by measuring residual activity at 0.01 uM incubated for 3 hrs by Western blot analysis relative to control

T1 sequence (Q96SW2 whole entry, looked up, other chains not shown): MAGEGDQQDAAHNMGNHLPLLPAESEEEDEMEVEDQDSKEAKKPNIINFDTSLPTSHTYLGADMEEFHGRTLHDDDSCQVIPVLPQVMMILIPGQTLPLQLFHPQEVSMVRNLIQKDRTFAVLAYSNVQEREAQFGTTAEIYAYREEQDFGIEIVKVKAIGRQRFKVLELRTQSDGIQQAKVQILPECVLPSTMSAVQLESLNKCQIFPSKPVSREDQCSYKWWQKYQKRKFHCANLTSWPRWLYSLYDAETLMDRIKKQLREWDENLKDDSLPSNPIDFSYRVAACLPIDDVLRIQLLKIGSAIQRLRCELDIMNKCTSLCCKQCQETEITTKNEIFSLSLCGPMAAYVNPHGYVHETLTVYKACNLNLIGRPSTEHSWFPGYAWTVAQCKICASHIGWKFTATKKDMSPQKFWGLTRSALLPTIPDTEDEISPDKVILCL

Activity [1]: 17%
Activity [2]: 67%
Activity [3]: 110%
Activity [4]: 129%
Activity [5]: 28%
Activity [6]: Active
Activity [7]: 49%
Activity [8]: 85%
Activity [9]: 80%
Activity [10]: 93%
SMILES: Cc1sc2c(c1C)C(c1ccc(Cl)cc1)=N[C@@H](CC(=O)NCCCCC(=O)NCCNc1cccc3c1C(=O)N(C1CCC(=O)NC1=O)C3=O)c1nnc(C)n1-2 (stereo not given in full)
